Laboratory results as given in publication PMC5691699, “Processing ‘Ataulfo’ Mango into Juice Preserves the Bioavailability and Antioxidant Capacity of Its Phenolic Compounds” (Nutrients, 2017).
Where two headings read alike, the source gives them in different places. Each block holds one compound with its values, some of them ahead of it.

What was measured:
[1] = Urinary excretion (0–24 h) of phenolic compounds after 'Ataulfo' mango flesh or juice, HPLC-ECD; conditions: for detection in urine: after mango flesh and juice consumption, 0–24 h; for urinary excretion, juice group versus flesh group: at 0–4 and 4–8 h, normalized to creatinine
Text: Twelve middle-aged healthy men aged 22 to 34 years were recruited from CIAD. […] All subjects were free of diagnosed heart disease, homeostatic disorders, gastrointestinal disease, or other medical conditions; they were not taking any medication or any vitamin/mineral supplement.
After baseline (time 0), blood and urine were collected, subjects were randomly assigned to consume mango flesh slices or juice in a 10-min period, in random order separated by a 3 day wash-out period. […] Blood was collected in a vacutainer tube containing EDTA as anticoagulant. Plasma was recovered, and 0.5 mL aliquots were immediately acidified using 20 µL of 4 M HCl. Acidified plasma and urine samples were stored at −80 °C until analysis. During blood collection, subjects were only allowed water, other foods and beverages were not allowed. They were given a hamburger without vegetables and ketchup for lunch. For dinner, they were allowed to eat a meal, but with the same restrictions as those of the wash-out period.
Phenolics in urine were quantified according to the method of McKay et al. [20]. Urine (200 µL) was dissolved in 800 µL of buffer (0.1 M sodium acetate, pH 5) and 30 µL of β-glucuronidase/sulfatase (98,000 kU/L β-glucuronidase and 2400 kU/L sulfatase), and incubated at 37 °C for 60 min. After incubation, 10 µL of 100 µg/mL internal standard (2′,3′,4′-trihydroxyacetophenone) and 200 µL glacial acetic acid were added, and the mixture was briefly vortexed. After the addition of approximately 1 g of NaCl, phenolics were extracted twice with 3 mL of ethyl acetate. The combined ethyl acetate fractions were dried under nitrogen gas and reconstituted in 1 mL of the aqueous HPLC mobile phase, filtered through a 0.22-µm Millex syringe-driven filter (Millipore Corporation, Bedford, MA, USA), and injected (50 µL) onto the HPLC-ECD system. […] The intraday CV for standards spiked into urine was <7%. Urinary phenolics were normalized to creatinine concentration, which was measured with a commercial kit.

[2] = clinical; conditions: for AUC/Dose: dose-adjusted AUC 0 to 6 h, n = 12
Text: Phenolics in plasma were quantified according to the method of Chen, Milbury, Lapsley, and Blumberg. […] Subsequently, phenolics were extracted with acetonitrile. After centrifugation, the supernatant was removed, dried with nitrogen gas, and reconstituted in the aqueous HPLC mobile phase, filtered using Ultrafree Durapore Centrifugal filter devices (0.22, Merck Millipore, Billerica, MA, USA), and injected into the HPLC- ECD system, using previously optimized chromatographic conditions. The mobile phases were 75 mM citric acid and 25 mM ammonium acetate in 90% water/10% acetonitrile (A), and 75 mM citric acid and 25 mM ammonium acetate in 50% water/50% acetonitrile (B).
Results are expressed as mean ± standard deviation (SD). The maximum concentration (Cmax) in plasma and the time to reach Cmax (Tmax) were visually identified. The area under the concentration-time curve (AUC) of plasma phenolics was calculated using the linear trapezoidal integration equation [24]. The differences in Cmax, Tmax, and AUC of phenolics between mango flesh and juice treatments were examined using an analysis of covariance, with time 0 values as the covariant, followed by the Tukey-Kramer multi-comparison test. The Number Cruncher Statistical System version 6.0 software (NCSS, NCSS LLC, Kaysville, UT, USA) was used to perform all statistical analyses.

[3] = in vivo
[4] = after mango flesh and juice consumption, 0–6 h
[5] = plasma, after 500 g mango flesh, healthy men, n = 12, mean ± SD
[6] = plasma, after 721 g mango juice, healthy men, n = 12, mean ± SD
[7] = plasma, after 500 g mango flesh
[8] = plasma, after 721 g mango juice
[9] = male, human, plasma, oral, 500 g, AUC, plasma, time 0 to 6 h, after 500 g mango flesh, n = 12, mean ± SD
[10] = male, human, plasma, oral, 500 g, Cmax, plasma, after 500 g mango flesh, healthy men, n = 12, mean ± SD
[11] = male, human, plasma, oral, 500 g, Tmax, plasma, after 500 g mango flesh, healthy men, n = 12, mean ± SD
[12] = male, human, plasma, oral, 721 g, AUC, plasma, time 0 to 6 h, after 721 g mango juice, n = 12, mean ± SD
[13] = male, human, plasma, oral, 721 g, Cmax, plasma, after 721 g mango juice, healthy men, n = 12, mean ± SD
[14] = male, human, plasma, oral, 721 g, Tmax, plasma, after 721 g mango juice, healthy men, n = 12, mean ± SD

detection in urine [1]: detected in urine
urinary excretion, juice group versus flesh group [1]: significantly higher
SMILES: O=C(O)/C=C/c1ccc(O)cc1 [p-coumaric acid]

detection in plasma [2, 4]: not in plasma
detection in urine [1]: detected in urine
urinary AUC/dose excretion ([1]; compared with the other urinary phenolics, values higher in the juice group): Higher
SMILES: COc1cc(C(=O)O)ccc1O [Vanillic acid, vanillic acid]

detection in urine [1]: found in urine
SMILES: Oc1cccc(O)c1O [Pyrogallol, pyrogallol]

detection in plasma [2, 4]: detected in plasma
AUC [2, 9]: 141 ± 73.9 ng·h/mL
Cmax [2, 10]: 30.8 ± 13.3 ng/mL
Tmax [2, 11]: 3.5 ± 2 h
AUC [2, 12]: 109 ± 5.4 ng·h/mL
Cmax [2, 13]: 34.5 ± 18 ng/mL
Tmax [2, 14]: 3.7 ± 1.7 h
greater absorption from mango flesh ([2]; mango flesh compared with juice): 49%
AUC/Dose [2, 7]: 344.8 ± 138.3 (ng h/mL)/mg
AUC/Dose [2, 8]: 204.90 ± 9.9 (ng h/mL)/mg
detection in urine [1]: not in urine
SMILES: O=C(O)c1ccc(O)c(O)c1 [Protocatechuic acid, protocatechuic acid]

detection in plasma ([2]; in vivo): not in plasma
urinary AUC/dose excretion ([3]; human): Higher
detection in urine [3]: detected in urine
SMILES: COc1cc(/C=C/C(=O)O)cc(OC)c1O [sinapic acid]

The next lines start with the compound.

SMILES: COc1cc(/C=C/C(=O)O)ccc1O [Ferulic acid, ferulic acid]
detection in plasma [2, 4]: detected in plasma
Cmax [2, 5]: 16.5 ± 3.9 ng/mL
Tmax [2, 5]: 2.8 ± 2.1 h
Cmax [2, 6]: 32.7 ± 10.9 ng/mL
Tmax [2, 6]: 2.3 ± 1.5 h
AUC/Dose [2, 7]: 31.0 ± 9.63 (ng h/mL)/mg
AUC/Dose [2, 8]: 83.8 ± 30.2 (ng h/mL)/mg
AUC ([2]; plasma, time 0 to 6 h, after 500 g mango flesh, n = 12, mean ± SD): 60.2 ± 22.7 ng·h/mL
AUC ([2]; plasma, time 0 to 6 h, after 721 g mango juice, n = 12, mean ± SD): 133.4 ± 47.7 ng·h/mL
detection in urine [1]: detected in urine
urinary excretion, juice group versus flesh group [1]: significantly higher

SMILES: O=C(O)c1cc(O)c(O)c(O)c1 [Gallic acid, gallic acid]
AUC ([2]; male, human, in vivo): 38.5 ± 14.5 ng·h/mL
Cmax ([2]; male, human, in vivo): 7.9 ± 4.7 ng/mL
AUC ([2]; male, human, in vivo, AUC): 36.9 ± 24.3 ng·h/mL
Cmax ([2]; male, human, in vivo, Cmax): 8.7 ± 1.7 ng/mL
Tmax ([2]; male, human, in vivo, Tmax, plasma, after 500 g mango flesh, healthy men, n = 12, mean ± SD): 4.4 ± 1.1 h
Tmax ([2]; male, human, in vivo, Tmax, plasma, after 721 g mango juice, healthy men, n = 12, mean ± SD): 3.5 ± 1 h

SMILES: O=C(O)c1cc(O)ccc1O [Gentisic acid, gentisic acid]
detection in plasma [2, 4]: detected in plasma
AUC ([2]; male, human, in vivo): 50.9 ± 11.0 ng·h/mL
Cmax ([2]; male, human, in vivo): 12.2 ± 0.2 ng/mL
Tmax ([2]; male, human, in vivo): 2.8 ± 1.9 h
AUC ([2]; male, human, in vivo, AUC): 53.1 ± 8.3 ng·h/mL
Cmax ([2]; male, human, in vivo, Cmax): 11.8 ± 2.1 ng/mL
Tmax ([2]; male, human, in vivo, Tmax): 4 ± 1.4 h
AUC/Dose [2, 7]: 221.2 ± 34.0 (ng h/mL)/mg
AUC/Dose [2, 8]: 282.7 ± 59.1 (ng h/mL)/mg
detection in urine [1]: not in urine

SMILES: O=C(/C=C/c1ccc(O)c(O)c1)O[C@@H]1C[C@](O)(C(=O)O)C[C@@H](O)[C@H]1O [Chlorogenic acid, chlorogenic acid]
detection in plasma [2, 4]: detected in plasma
AUC [2, 9]: 209 ± 24.5 ng·h/mL
Cmax [2, 10]: 49.7 ± 7.3 ng/mL
Tmax [2, 11]: 3.5 ± 1.4 h
AUC [2, 12]: 367 ± 131 ng·h/mL
Cmax [2, 13]: 109.7 ± 0.26 ng/mL
Tmax [2, 14]: 2.5 ± 1.8 h
higher absorption from mango juice ([2]; mango juice compared with flesh): 62%
AUC/Dose [2, 7]: 11.5 ± 1.78 (ng h/mL)/mg
AUC/Dose [2, 8]: 50.12 ± 15.5 (ng h/mL)/mg
